Assay results taken from patent US11708562B2, “Differentiation of human embryonic stem cells” (Janssen Biotech, Inc., priority 2006, dated 2023).

System: H9P83 cells on MATRIGEL and H9P44 cells on MEFs
Test: Microarray analysis of gene expression after definitive endoderm formation (Table IV)
Assay type: cell-based, human
Protocol: Controls for each group included cells plated on […]-coated dishes and cultured in MEF-conditioned medium or cells plated on MEFs and cultured in ES medium.
Sample preparation, hybridization, and image analysis were performed according to the Affymetrix Human Genome U133 Plus 2.0 Array. Following normalization and a log transformation, data analysis was performed using OmniViz® software (MA) and […] (VizXLabs, WA). The variability within each treatment and among the different treatments was compared using the Pearson correlation coefficient. […] Significant differences in gene expression between the samples were evaluated using analysis of variance and an F-test with adjusted P-value (Benjamini and Hochberg correction) of ≤0.05. Only genes with a present call were included in the analysis.

[1] = microarray, H9P44 on MEFs, DE stage, 5 days of treatment
[2] = microarray, H9P83 on Matrigel, DE stage, 5 days of treatment

In the case of “Activin A: a member of the TGFβ superfamily; growth factor (R&D Systems) used to differentiate human embryonic stem cells”, the “SCG5 (NM_003020) gene expression” value (H9P83 on Matrigel-DE stage, after 5 days of treatment, undifferentiated H9P83 on Matrigel 4.03) is reported as 2.53, the “C20orf118 (BF437747) gene expression” value (H9P83 on Matrigel-DE stage, after 5 days of treatment, undifferentiated H9P83 on Matrigel 4.26) is reported as 1.99 and the “C20orf118 (AV715309) gene expression” value (H9P83 on Matrigel-DE stage, after 5 days of treatment, undifferentiated H9P83 on Matrigel 4.28) is reported as 1.89. The “LECT1 (NM_007015) gene expression” value (H9P83 on Matrigel-DE stage, after 5 days of treatment, undifferentiated H9P83 on Matrigel 4.83) was 2.27, the “SCNN1G (AI985987) gene expression” value (H9P83 on Matrigel-DE stage, after 5 days of treatment, undifferentiated H9P83 on Matrigel −0.28) was −0.99 and the “PCDH8 (NM_002590) gene expression” value (H9P83 on Matrigel-DE stage, after 5 days of treatment, undifferentiated H9P83 on Matrigel −0.80) was −0.83. For the same substance, the “TMEM16A (NM_018043) gene expression” value (H9P83 on Matrigel-DE stage, after 5 days of treatment, undifferentiated H9P83 on Matrigel −0.90) was −1.93, the “ATP5S (BE968806) gene expression” value (H9P83 on Matrigel-DE stage, after 5 days of treatment, undifferentiated H9P83 on Matrigel −1.15) was −3.03 and the “SDK2 (N23651) gene expression” value (H9P83 on Matrigel-DE stage, after 5 days of treatment, undifferentiated H9P83 on Matrigel −1.16) was −2.65. For the same substance, the “PAK7 (AB040812) gene expression” value (H9P83 on Matrigel-DE stage, after 5 days of treatment, undifferentiated H9P83 on Matrigel −1.37) was −3.89, the “IFIH1 (NM_022168) gene expression” value (H9P83 on Matrigel-DE stage, after 5 days of treatment, undifferentiated H9P83 on Matrigel −2.03) was −2.76 and the “gene expression ADAMTS5 (NM_007038), H9P44 on MEFs-DE stage” value [1] was 1.11. For the same substance, the “gene expression AF116676 (PRO1957 mRNA), H9P44 on MEFs-DE stage” value [1] was 4.23, the “gene expression AI016316 (ESTs), H9P44 on MEFs-DE stage” value [1] was 0.25 and the “gene expression AI222435 (ESTs), H9P44 on MEFs-DE stage” value [1] was −0.33. For the same substance, the “gene expression AK057525 (cDNA FLJ32963), H9P44 on MEFs-DE stage” value [1] was 4.80, the “gene expression BE327172 (v-jun avian sarcoma virus 17 oncogene homolog), H9P44 on MEFs-DE stage” value [1] was 3.57 and the “gene expression C9orf19 (AA284532), H9P44 on MEFs-DE stage” value [1] was 4.93. The “gene expression CD99 (U82164), H9P44 on MEFs-DE stage” value [1] was 6.36, the “gene expression CDKN1A (NM_000389), H9P44 on MEFs-DE stage” value [1] was 4.16 and the “gene expression CNN1 (NM_001299), H9P44 on MEFs-DE stage” value [1] was 5.14. The “gene expression COL22A1 (AW241910), H9P44 on MEFs-DE stage” value [1] was 1.90, the “gene expression CREB5 (AI819043), H9P44 on MEFs-DE stage” value [1] was 1.80 and the “gene expression CXCL1 (NM_001511), H9P44 on MEFs-DE stage” value [1] was 2.39. For the same substance, the “gene expression DNAJB2 (NM_006736), H9P44 on MEFs-DE stage” value [1] was 3.75, the “gene expression DNAJC15 (NM_013238), H9P44 on MEFs-DE stage” value [1] was 5.58 and the “gene expression EDG3 (AA534817), H9P44 on MEFs-DE stage” value [1] was 4.58. The “gene expression EMP3 (NM_001425), H9P44 on MEFs-DE stage” value [1] was 3.13, the “gene expression FLNC (NM_001458), H9P44 on MEFs-DE stage” value [1] was 3.39 and the “gene expression FN1 (AK026737), H9P44 on MEFs-DE stage” value [1] was 7.39. The “gene expression FN1 (BC005858), H9P44 on MEFs-DE stage” value [1] was 7.37, the “gene expression GADD45A (NM_001924), H9P44 on MEFs-DE stage” value [1] was 5.38 and the “gene expression GNA14 (NM_004297), H9P44 on MEFs-DE stage” value [1] was 2.95. The “gene expression HIST1H2BK (BC000893), H9P44 on MEFs-DE stage” value [1] was 4.81, the “gene expression IGSF4 (NM_014333), H9P44 on MEFs-DE stage” value [1] was 3.79 and the “gene expression JUN (BG491844), H9P44 on MEFs-DE stage” value [1] was 5.91. For the same substance, the “gene expression KLF6 (AB017493), H9P44 on MEFs-DE stage” value [1] was 4.87, the “gene expression MFAP5 (U37283), H9P44 on MEFs-DE stage” value [1] was 1.36 and the “gene expression MYL4 (M36172), H9P44 on MEFs-DE stage” value [1] was 4.11. The “gene expression PALLD (AK025843), H9P44 on MEFs-DE stage” value [1] was 3.29, the “gene expression PDGFC (AB033831), H9P44 on MEFs-DE stage” value [1] was 0.21 and the “gene expression PLK2 (NM_006622), H9P44 on MEFs-DE stage” value [1] was 5.19. For the same substance, the “gene expression ST3GAL1 (NM_003033), H9P44 on MEFs-DE stage” value [1] was 2.74, the “gene expression TRDN (AA192306), H9P44 on MEFs-DE stage” value [1] was 0.57 and the “gene expression TTC29 (AF345910), H9P44 on MEFs-DE stage” value [1] was 0.91. The “gene expression X58851 (MLC1emb gene), H9P44 on MEFs-DE stage” value [1] was 4.04, the “gene expression ADAMTS5 (NM_007038), H9P83 on Matrigel-DE stage” value [2] was 1.80 and the “gene expression AF116676 (PRO1957 mRNA), H9P83 on Matrigel-DE stage” value [2] was 3.31. For the same substance, the “gene expression AI016316 (ESTs), H9P83 on Matrigel-DE stage” value [2] was 1.19, the “gene expression AI222435 (ESTs), H9P83 on Matrigel-DE stage” value [2] was −0.73 and the “gene expression AK057525 (cDNA FLJ32963), H9P83 on Matrigel-DE stage” value [2] was 4.45. For the same substance, the “gene expression BE327172 (v-jun avian sarcoma virus 17 oncogene homolog), H9P83 on Matrigel-DE stage” value [2] was 2.94, the “gene expression C9orf19 (AA284532), H9P83 on Matrigel-DE stage” value [2] was 4.12 and the “gene expression CD99 (U82164), H9P83 on Matrigel-DE stage” value [2] was 5.69. The “gene expression CDKN1A (NM_000389), H9P83 on Matrigel-DE stage” value [2] was 4.20, the “gene expression CNN1 (NM_001299), H9P83 on Matrigel-DE stage” value [2] was 5.75 and the “gene expression COL22A1 (AW241910), H9P83 on Matrigel-DE stage” value [2] was 1.15. For the same substance, the “gene expression CREB5 (AI819043), H9P83 on Matrigel-DE stage” value [2] was 2.63, the “gene expression CXCL1 (NM_001511), H9P83 on Matrigel-DE stage” value [2] was 2.95 and the “gene expression DNAJB2 (NM_006736), H9P83 on Matrigel-DE stage” value [2] was 3.46. For the same substance, the “gene expression DNAJC15 (NM_013238), H9P83 on Matrigel-DE stage” value [2] was 3.79, the “gene expression EDG3 (AA534817), H9P83 on Matrigel-DE stage” value [2] was 3.28 and the “gene expression EMP3 (NM_001425), H9P83 on Matrigel-DE stage” value [2] was 3.90. The “gene expression FLNC (NM_001458), H9P83 on Matrigel-DE stage” value [2] was 4.17, the “gene expression FN1 (AK026737), H9P83 on Matrigel-DE stage” value [2] was 6.85 and the “gene expression FN1 (BC005858), H9P83 on Matrigel-DE stage” value [2] was 6.86. The “gene expression GADD45A (NM_001924), H9P83 on Matrigel-DE stage” value [2] was 5.04, the “gene expression GNA14 (NM_004297), H9P83 on Matrigel-DE stage” value [2] was 4.52 and the “gene expression HIST1H2BK (BC000893), H9P83 on Matrigel-DE stage” value [2] was 3.99. For the same substance, the “gene expression IGSF4 (NM_014333), H9P83 on Matrigel-DE stage” value [2] was 4.12, the “gene expression JUN (BG491844), H9P83 on Matrigel-DE stage” value [2] was 5.45 and the “gene expression KLF6 (AB017493), H9P83 on Matrigel-DE stage” value [2] was 4.02. For the same substance, the “gene expression MFAP5 (U37283), H9P83 on Matrigel-DE stage” value [2] was 1.87, the “gene expression MYL4 (M36172), H9P83 on Matrigel-DE stage” value [2] was 3.30 and the “gene expression PALLD (AK025843), H9P83 on Matrigel-DE stage” value [2] was 3.38. The “gene expression PDGFC (AB033831), H9P83 on Matrigel-DE stage” value [2] was 0.63, the “gene expression PLK2 (NM_006622), H9P83 on Matrigel-DE stage” value [2] was 5.88 and the “gene expression ST3GAL1 (NM_003033), H9P83 on Matrigel-DE stage” value [2] was 1.68. For the same substance, the “gene expression TRDN (AA192306), H9P83 on Matrigel-DE stage” value [2] was 0.02, the “gene expression TTC29 (AF345910), H9P83 on Matrigel-DE stage” value [2] was 1.53 and the “gene expression X58851 (MLC1emb gene), H9P83 on Matrigel-DE stage” value [2] was 2.75.
